# Where two headings read alike, the source gives them in different places. Where no end group is shown, it is not given here.
# Columns and labels:
# Bemisia = assay: Whitefly artificial feeding study with tryptamine-supplemented diets; assay type: in vivo, Bemisia tabaci; settings: artificial diet
# Method: To assess whether tryptamine was acutely toxic to whitefly, artificial feeding studies were conducted in which whiteflies were fed artificial diets supplemented with a range of tryptamine concentrations.
# Rhyzoctonia solani R2 = settings: 24 h
# [1] = test system: Phytophthora parasitica (petunia)
# Pseudomonas syringae = settings: 24 h
# Fusarium graminearum = settings: non-germinated spores, 24 hrs
# Erwinia carotovora = settings: 24 h
# Thielaviopsis basicola = settings: 24 h
# Botrytis cinerea = settings: 24 h
# [2] = test system: Phytophthora parasitica (vinca); settings: vinca isolate, 24 hrs
# Fusarium solani = settings: 24 h
# [3] = test system: bacterial and fungal phytopathogens; assay: In vitro anti-microbial activity of lytic peptides (statement in words); assay type: cell-based
# [4] = test system: ethylene-induced epinasty; settings: plants sprayed with 4 mM solution, 18 hrs later exposed to ethylene for 24 hours
# Method: To test for ethylene sensitivity, untransformed and transgenic poinsettia plants were exposed to 15 μl/liter ethylene for 24 hours to induce epinasty.
# At 18 hrs after STS treatment, the STS-treated poinsettias were exposed to ethylene for 24 hours.
# [5] = petunia isolate, germinated spores, 24 hrs
compound,measurement,setting,value
"NCCc1c[nH]c2ccccc12 [Tryptamine, tryptamine]",tryptamine concentration toxic to Bemisia,Bemisia,50 to 100 µg/mL
"GIGKFLHSAKKFGKAFVGEIMNS [Mag 2, magainin 2, reference compound]",Minimum Inhibitory Concentration,Rhyzoctonia solani R2,16 to 32 µg/mL
same,Minimum Inhibitory Concentration,[1]; 24 h,>128 µg/mL
same,Minimum Inhibitory Concentration,Pseudomonas syringae,32 µg/mL
same,Minimum Inhibitory Concentration,Fusarium graminearum,4 to 8 µg/mL
same,Minimum Inhibitory Concentration,Erwinia carotovora,32 µg/mL
GIGKFLKSAKKFGKAFVKILNS [MSI-99],Minimum Inhibitory Concentration,Rhyzoctonia solani R2,16 µg/mL
same,Minimum Inhibitory Concentration,Thielaviopsis basicola,4 µg/mL
same,Minimum Inhibitory Concentration,[1]; 24 h,8 to 16 µg/mL
same,Minimum Inhibitory Concentration,Botrytis cinerea,8 µg/mL
same,Minimum Inhibitory Concentration,Fusarium graminearum,4 µg/mL
GMASKAGAIAGKIAKVALKAL-OH [PGL],Minimum Inhibitory Concentration,Rhyzoctonia solani R2,16 to 32 µg/mL
same,Minimum Inhibitory Concentration,[1]; [5],>128 µg/mL
same,Minimum Inhibitory Concentration,Pseudomonas syringae,>64 µg/mL
same,Minimum Inhibitory Concentration,[2]; germinated spores,>128 µg/mL
same,Minimum Inhibitory Concentration,[2]; non-germinated spores,>256 µg/mL
same,Minimum Inhibitory Concentration,Fusarium graminearum,4 to 8 µg/mL
same,Minimum Inhibitory Concentration,Erwinia carotovora,32 µg/mL
"KRKRAVKRVGRRLKKLARKIARLGVAF [Line D5-C, D5-C]",Minimum Inhibitory Concentration,Rhyzoctonia solani R2,32 to 64 µg/mL
same,Minimum Inhibitory Concentration,Thielaviopsis basicola,16 µg/mL
same,Minimum Inhibitory Concentration,[1]; [5],16 to 32 µg/mL
same,Minimum Inhibitory Concentration,Fusarium solani,4 µg/mL
same,Minimum Inhibitory Concentration,[2]; germinated spores,16 to 32 µg/mL
same,Minimum Inhibitory Concentration,[2]; non-germinated spores,16 µg/mL
MSI-55 (KIAGKIAKIAGKIAKIAGKIA),antibacterial and anti-fungal activity in vitro,[3],potent antibacterial and anti-fungal activity
silver thiosulfate [STS],signs of epinasty or wilting after ethylene treatment,[4],"little, if any, signs of epinasty or wilting"
